Peptide text beside a SMILES is read from it. * marks the point of attachment. Cbz = O=C(OCc1ccccc1)*
Key:
[1] = molecular target: T1, mutated RPE65 (R91W KI mice) (Mus musculus, UniProt Q91ZQ5, R91W); conditions: cited from earlier work
T1 construct: host or cells: R91W knock-in (KI) mice
T1 sequence (Q91ZQ5 1-533 R91W): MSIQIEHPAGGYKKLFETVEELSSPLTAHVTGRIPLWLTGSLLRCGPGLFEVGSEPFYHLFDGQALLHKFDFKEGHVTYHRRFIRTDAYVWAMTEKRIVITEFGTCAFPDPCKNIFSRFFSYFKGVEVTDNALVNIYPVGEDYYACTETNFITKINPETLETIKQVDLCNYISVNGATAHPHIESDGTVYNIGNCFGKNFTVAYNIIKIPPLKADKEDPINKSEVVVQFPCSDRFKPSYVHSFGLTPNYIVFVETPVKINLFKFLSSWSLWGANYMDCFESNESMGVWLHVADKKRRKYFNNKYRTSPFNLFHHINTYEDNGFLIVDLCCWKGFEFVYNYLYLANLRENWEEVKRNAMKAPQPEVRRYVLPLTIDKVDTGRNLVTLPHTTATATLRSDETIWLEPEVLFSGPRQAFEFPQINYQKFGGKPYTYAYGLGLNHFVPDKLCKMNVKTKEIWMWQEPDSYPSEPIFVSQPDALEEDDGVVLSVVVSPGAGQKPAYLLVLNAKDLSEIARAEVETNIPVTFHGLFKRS

[2] = tested on: FATP4 in intestinal cells; conditions: animal studies; cited from earlier work
[3] = tested on: fatty acid transport protein 4 (FATP4); experiment: Immunoblot analysis of FATP4 in the RPE of mice treated daily with drug; type: in vivo, mouse; conditions: one-month-old mice treated daily, oral; Ezetimibe 10 mg/kg, Simvastatin 30 mg/kg; vs DMSO
Source text: Actin was detected as the loading control.

[4] = tested on: S-opsin in retinal explants; experiment: Protease inhibitor assay: immunoblot of S-opsin in retinal explants; type: cell-based, mouse; conditions: 5 hours
Source text: OS, outer segments; ONL, Outer nuclear layer; OPL, outer plexiform layer. Scale bar, 20-μm. (B) Percentage of Sopsin mislocalization estimated by dividing S-opsin immunofluorescence in the OPL by the sum of immunofluorescence in the OPL and OS. Note the decrease in S-opsin mislocalization in KI;Fatp4^−/− mice. (C,D) Immunoblot analysis of S-opsin in retinal explants treated with the indicated concentrations of MG132 (C) or pepstatin A (D). DMSO was used in the MG132 and pepstatin A null controls. Histograms show relative immunoblot intensities of S-opsin in MG132-treated and pepstatin A-treated retinas versus DMSO-treated controls. (E) Representative immunoblot analysis of M-opsin in Triton X-100 (Tx)-soluble and -insoluble retinal fractions separated by ultracentrifugation (right panel). […] (F) Percentages of Tx-soluble and -insoluble Mopsin in WT, KI, and KI;Fatp4^−/− mice are estimated from the immunoblot intensities in (E).
Immunoblot analysis Protein samples were separated by SDS-PAGE and transferred to an Immobilon-P membrane. The membrane was incubated in blocking buffer, primary antibody, and horseradish peroxidase-conjugated anti-rabbit or mouse IgG secondary antibody. Antibodies against RPE65 (63), LRAT (64, 65), FATP4 (66), β-actin, rhodopsin, M-opsin (MilliporeSigma Co.), S-opsin (Santa Cruz Biotechnology) were used as the primary antibodies. Immunoblots were visualized with the ECL Prime Western blotting detection reagent and ImageQuant LAS 4000 (48). Signal intensity of each band was quantified using ImageQuant TL software.
Protease inhibitor assay Eyes were enucleated from euthanized 4-week-old mice, and the corneas and lenses were removed. The neural retinas dissected from the eyecups were maintained in the DMEM-F12 medium (Thermo Fisher Scientific Inc.) supplemented with 10% fetal bovine serum and antibiotics in a 5% CO2 incubator at 37° C. After incubating for 5 hours in the presence of a series of increasing concentrations of MG132 (0˜25 μM) or pepstatin A (0˜30 μM), the retinas were subjected to immunoblot analysis.

RPE65 isomerase = molecular target: T2, RPE65 isomerase (Homo sapiens, UniProt Q16518); conditions: in vitro; cited from earlier work
T2 sequence (Q16518 1-533): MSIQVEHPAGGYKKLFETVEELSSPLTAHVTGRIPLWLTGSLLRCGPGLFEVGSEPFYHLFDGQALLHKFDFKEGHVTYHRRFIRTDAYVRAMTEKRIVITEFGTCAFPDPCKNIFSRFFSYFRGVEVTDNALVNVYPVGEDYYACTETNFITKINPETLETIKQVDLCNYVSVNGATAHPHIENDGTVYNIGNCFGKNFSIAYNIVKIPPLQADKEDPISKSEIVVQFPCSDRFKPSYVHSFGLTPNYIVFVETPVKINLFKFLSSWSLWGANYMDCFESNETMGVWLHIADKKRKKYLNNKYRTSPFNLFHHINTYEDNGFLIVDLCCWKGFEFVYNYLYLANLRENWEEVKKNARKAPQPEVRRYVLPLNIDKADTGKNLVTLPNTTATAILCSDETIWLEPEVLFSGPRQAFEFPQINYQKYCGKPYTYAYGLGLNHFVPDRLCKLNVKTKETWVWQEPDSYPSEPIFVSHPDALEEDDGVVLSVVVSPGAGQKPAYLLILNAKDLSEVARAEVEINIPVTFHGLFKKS

O=C(O)CCCc1ccccc1 [4-phenylbutyrate]
elevation of 11cRAL ([1]; KI mice): 96% | function of mutated RPE65; preservation of photoreceptors and vision ([1]; systemic administration, mouse model of LCA): could partially rescue the function of mutated RPE65

O=C1[C@H](CC[C@H](O)c2ccc(F)cc2)[C@@H](c2ccc(O)cc2)N1c1ccc(F)cc1 [Ezetimibe]
expression of FATP4 in intestinal cells [2]: markedly reduced expression of FATP4 | expression levels of FATP4 in the retinal pigment epithelium (RPE) [3]: reduced expression levels

CC(C)C[C@@H](C=O)NC(=O)[C@H](CC(C)C)NC(=O)[C@H](CC(C)C)NC(=O)OCc1ccccc1 [MG132] (Cbz-Leu-Leu-Leu-aldehyde)
relative amount of S-opsin, increase vs DMSO-treated retinas ([4]; KI retinas, MG132 (0~25 μM)): 3 fold | relative amount of S-opsin, increase vs DMSO-treated retinas ([4]; KI;Fatp4−/− retinas, MG132 (0~25 μM)): 1.6 fold

CCCCCCCCCCCCCCCCCCCCCCCC(=O)SCCNC(=O)CCNC(=O)[C@H](O)C(C)(C)COP(=O)(O)OP(=O)(O)OC[C@H]1O[C@@H](n2cnc3c(N)ncnc32)[C@H](O)[C@@H]1OP(=O)(O)O [lignoceroyl (C24:0)-CoA]
synthesis of 11-cis-retinol (11cROL) (RPE65 isomerase): inhibited the synthesis

CCCCCCCCCCCCCCCC(=O)SCCNC(=O)CCNC(=O)[C@H](O)C(C)(C)COP(=O)(O)OP(=O)(O)OC[C@H]1O[C@@H](n2cnc3c(N)ncnc32)[C@H](O)[C@@H]1OP(=O)(O)O [palmitoyl (C16:0)-CoA]
synthesis of 11-cis-retinol (11cROL) (RPE65 isomerase): promoted the synthesis

pepstatin A
relative amount of S-opsin, increase vs DMSO-treated retinas ([4]; KI retinas, pepstatin A (0~30 μM)): ~55% | relative amount of S-opsin, increase vs DMSO-treated retinas ([4]; KI;Fatp4−/− retinas, pepstatin A (0~30 μM)): ~43%
